Source: patent publication US12209072B2, “Cyclopentyl acids as LPA antagonists” (BRISTOL-MYERS SQUIBB COMPANY, priority 2018, dated 2025)

Target: T1, human LPA1 (Homo sapiens, UniProt Q92633)
T1 construct: expressed in transfected cells; host or cells: Chinese hamster ovary (CHO) cells
Assay: LPA1 functional antagonist assay (LPA-induced calcium flux)
Type: cell-based
Conditions: CHO cells overexpressing human LPA1; inhibition of calcium flux induced by 10 nM LPA; read-out: hLPA1 IC50
Experimental: The effectiveness of compounds of the present invention as LPA1 inhibitors can be determined in an LPA1 functional antagonist assay as follows:
Chinese hamster ovary cells overexpressing human LPA1 were plated overnight (15,000 cells/well) in poly-D-lysine coated 384-well microplates (Greiner bio-one, Cat #781946) in DMEM/F12 medium (Gibco, Cat #11039). Following overnight culture, cells were loaded with calcium indicator dye (AAT Bioquest Inc, Cat #34601) for 30 minutes at 37° C. The cells were then equilibrated to room temperature for 30 minutes before the assay. Test compounds solubilized in DMSO were transferred to 384 well non-binding surface plates (Corning, Cat #3575) using the Labcyte Echo acoustic dispense and diluted with assay buffer [1×HBSS with calcium/magnesium (Gibco Cat #14025-092), 20 mM HEPES (Gibco Cat #15630-080) and 0.1% fatty acid free BSA (Sigma Cat #A9205)] to a final concentration of 0.5% DMSO. Diluted compounds were added to the cells by FDSS6000 (Hamamatsu) at final concentrations ranging from 0.08 nM to 5 μM. and were then incubated for 20 min at room temperature at which time LPA (Avanti Polar Lipids Cat #857130C) was added at final concentrations of 10 nM to stimulate the cells. The compound IC50 value was defined as the concentration of test compound which inhibited 50% of the calcium flux induced by LPA alone. IC50 values were determined by fitting data to a 4-parameter logistic equation (GraphPad Prism, San Diego CA).

T1 sequence (Q92633 whole entry): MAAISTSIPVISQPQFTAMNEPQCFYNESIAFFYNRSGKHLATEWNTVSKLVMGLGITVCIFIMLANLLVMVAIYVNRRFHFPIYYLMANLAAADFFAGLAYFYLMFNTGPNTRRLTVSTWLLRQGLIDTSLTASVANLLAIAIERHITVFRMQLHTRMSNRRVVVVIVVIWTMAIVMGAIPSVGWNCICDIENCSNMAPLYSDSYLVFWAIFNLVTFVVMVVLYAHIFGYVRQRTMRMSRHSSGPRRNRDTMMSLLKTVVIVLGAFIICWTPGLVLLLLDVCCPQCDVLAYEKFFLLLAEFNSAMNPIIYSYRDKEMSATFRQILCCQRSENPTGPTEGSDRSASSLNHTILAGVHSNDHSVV

Row | SMILES | IC50 [nM]
1 | Cc1noc(-c2ccc(O[C@@H]3CC[C@@H](C(=O)O)C3)cc2)c1COC(=O)N(C)C1CCCC1 (racemic) [Example 3, (±)-Trans-3-(4-(4-(((cyclopentyl(methyl)carbamoyl)oxy)methyl)-3-methylisoxazol-5-yl)phenoxy)cyclopentane-1-carboxylic Acid] | 171
2 | Cc1nc(-c2onc(C)c2COC(=O)N(C)C2CCCC2)ccc1O[C@@H]1CC[C@@H](CC(=O)O)C1 (racemic) [Example 8, (±)-Trans-2-(3-((6-(4-(((cyclopentyl(methyl)carbamoyl)oxy)methyl)-3-methylisoxazol-5-yl)-2-methylpyridin-3-yl)oxy)cyclopentyl)acetic Acid] | 13
3 | CCCC1(COC(=O)NCc2c(-c3ccc(O[C@@H]4CC[C@@H](CC(=O)O)C4)c(C)n3)nnn2C)CC1 (racemic) [Example 9, (±)-Trans-2-(3-((2-methyl-6-(1-methyl-5-(((((1-propylcyclopropyl)methoxy)carbonyl)amino)methyl)-1H-1,2,3-triazol-4-yl)pyridin-3-yl)oxy)cyclopentyl)acetic Acid] | 111
4 | CCCC1(N(C)C(=O)OCc2c(-c3ccc(O[C@@H]4CC[C@@H](CC(=O)O)C4)c(C)n3)nnn2C)CC1 (racemic) [Example 10, (±)-Trans-2-(3-((2-methyl-6-(1-methyl-5-(((methyl(1-propylcyclopropyl)carbamoyl)oxy)methyl)-1H-1,2,3-triazol-4-yl)pyridin-3-yl)oxy)cyclopentyl)acetic Acid] | 372
5 | Cc1nc(-c2nnn(C)c2COC(=O)N(C)CC2CCC2)cnc1O[C@@H]1CC[C@@H](C(=O)O)C1 (racemic) [Example 13, (±)-Trans-3-((5-(5-((((cyclobutylmethyl)(methyl)carbamoyl)oxy)methyl)-1-methyl-1H-1,2,3-triazol-4-yl)-3-methylpyrazin-2-yl)oxy)cyclopentanecarboxylic Acid] | 618
6 | Cc1nc(-c2nnn(C)c2COC(=O)N(C)CC2CCCC2)cnc1O[C@@H]1CC[C@@H](C(=O)O)C1 (racemic) [Example 14, (±)-trans-3-((5-(5-((((cyclo-pentylmethyl)(methyl)carbamoyl)oxy)methyl)-1-methyl-1H-1,2,3-triazol-4-yl)-3-methylpyrazin-2-yl)oxy) cyclopentanecarboxylic Acid] | 184
7 | Cc1nc(-c2nnn(C)c2CNC(=O)OCc2ccccc2)cnc1O[C@@H]1CC[C@@H](C(=O)O)C1 (racemic) [Example 15, (±)-Trans-3-((5-(5-((((benzyloxy)carbonyl)amino)methyl)-1-methyl-1H-1,2,3-triazol-4-yl)-3-methylpyrazin-2-yl)oxy)cyclopentanecarboxylic Acid] | 714
8 | Cc1nc(-c2cnn(C)c2COC(=O)N(C)CC2CCC2)cnc1O[C@H]1CC[C@H](C(=O)O)C1 (racemic) [Example 16, (±)-Trans-3-((5-(5-((((cyclobutylmethyl)(methyl)carbamoyl)oxy)methyl)-1-methyl-1H-pyrazol-4-yl)-3-methylpyrazin-2-yl)oxy)cyclopentanecarboxylic Acid] | 202
9 | Cc1nc(-c2cnn(C)c2CNC(=O)OCc2ccccc2)cnc1O[C@H]1CC[C@H](C(=O)O)C1 (racemic) [Example 18, (±)-Trans-3-((5-(5-((((benzyloxy)carbonyl)amino)methyl)-1-methyl-1H-pyrazol-4-yl)-3-methylpyrazin-2-yl)oxy)cyclopentanecarboxylic Acid] | 369
10 | Cc1nc(-c2nnn(C)c2CNC(=O)OCc2ccccc2)ccc1O[C@@H]1CC[C@@H](C(=O)O)C1 (racemic) [Example 20, (±)-trans-3-((6-(5-((((benzyloxy)carbonyl)amino)methyl)-1-methyl-1H-1,2,3-triazol-4-yl)-2-methyl-pyridin-3-yl)oxy)cyclopentane carboxylic acid] | 39.7
11 | Cc1nc(-c2nnn(C)c2COC(=O)N(C)Cc2ccccc2)ccc1O[C@@H]1CC[C@@H](C(=O)O)C1 (racemic) [Example 22, (±)-trans-3-((6-(5-(((benzyl(methyl)carbamoyl)oxy)methyl)-1-methyl-1H-1,2,3-triazol-4-yl)-2-methylpyridin-3-yl)oxy)cyclopentane carboxylic acid] | 182
12 | CCCN(C)C(=O)OCc1c(-c2ccc(O[C@@H]3CC[C@@H](C(=O)O)C3)c(C)n2)nnn1C (racemic) [Example 23, (±)-trans-3-((2-methyl-6-(1-methyl-5-(((methyl(propyl)carbamoyl)oxy)methyl)-1H-1,2,3-triazol-4-yl)pyridin-3-yl)oxy)cyclopentanecarboxylic acid] | 2040
13 | Cc1nc(-c2nnn(C)c2COC(=O)N(C)CC(C)C)ccc1O[C@@H]1CC[C@@H](C(=O)O)C1 (racemic) [Example 24, (±)-trans-3-((6-(5-(((isobutyl(methyl)carbamoyl)oxy)methyl)-1-methyl-1H-1,2,3-triazol-4-yl)-2-methylpyridin-3-yl)oxy)cyclopentane carboxylic acid] | 1160
14 | CN(CC1CCC1)C(=O)OCc1c(-c2ccc(O[C@@H]3CC[C@@H](C(=O)O)C3)cn2)nnn1C (racemic) [Example 25, (±)-trans-3-((6-(5-((((cyclobutyl-methyl)(methyl)carbamoyl)oxy)methyl)-1-methyl-1H-1,2,3-triazol-4-yl)pyridin-3-yl)oxy)cyclopentane carboxylic acid] | 354
15 | Cc1nc(-c2nnn(C)c2COC(=O)N(C)CC2CCC2)cnc1O[C@H]1CC[C@H](CC(=O)O)C1 (racemic) [Example 26, (±)-2-(Trans-3-((5-(5-((((cyclobutylmethyl)(methyl)carbamoyl)oxy)methyl)-1-methyl-1H-1,2,3-triazol-4-yl)-3-methylpyrazin-2-yl)oxy)cyclopentyl)acetic Acid] | 371
16 | Cc1noc(-c2ccc(O[C@@H]3CC[C@@H](CC(=O)O)C3)cn2)c1CNc1nccc(-c2ccccn2)n1 (racemic) [Example 29, (±)2-(Trans-3-((6-(3-methyl-4-(((4-(pyridin-2-yl)pyrimidin-2-yl)amino)methyl)isoxazol-5-yl)pyridin-3-yl)oxy)cyclopentyl)acetic Acid] | 54
17 | Cc1nc(-c2nnn(C)c2COC(=O)N(C)CC2CCC2)ccc1OC[C@@H]1CC[C@H](C(=O)O)C1 (racemic) [Example 30, (±)-Cis-3-(((6-(5-((((cyclobutylmethyl)(methyl)carbamoyl)oxy)methyl)-1-methyl-1H-1,2,3-triazol-4-yl)-2-methylpyridin-3-yl)oxy)methyl)cyclopentane-1-carboxylic Acid] | 21
18 | Cc1nc(-c2onc(C)c2COC(=O)N(C)C2CCCC2)ccc1O[C@H]1CC[C@@H](CC(=O)O)C1 (racemic) [Example 47, (±)-cis-2-[3-({6-[4-({[cyclopentyl(methyl)carbamoyl]oxy}methyl)-3-methyl-1,2-oxazol-5-yl]-2-methyl-pyridin-3-yl}oxy)cyclopentyl]acetic acid] | 25
19 | Cc1nc(-c2nnn(C)c2COC(=O)N(C)CC2CCC2)ccc1O[C@H]1CC[C@@H](CC(=O)O)C1 (racemic) [Example 48, (±)-cis-2-[3-({6-[5-({[(cyclobutyl-methyl)(methyl)carbamoyl]oxy}methyl)-1-methyl-1H-1,2,3-triazol-4-yl]-2-methylpyridin-3-yl}oxy)cyclopentyl]acetic acid] | 40
20 | Cc1nc(-c2onc(C)c2COC(=O)N(C)C2CCCC2)ccc1O[C@H]1CC[C@H](C(C)C(=O)O)C1 (mixture of isomers) [Example 50, (±)-trans-2-[3-({6-[4-({[cyclopentyl(methyl)carbamoyl]oxy}methyl)-3-methyl-1,2-oxazol-5-yl]-2-methyl-pyridin-3-yl}oxy)cyclopentyl]propanoic acid] | 20
21 | Cc1nc(-c2onc(C)c2COC(=O)N(C)C2CCCC2)ccc1O[C@H]1CC[C@H](C(C)C(=O)O)C1 (mixture of isomers) [Example 51, (±)-trans-2-[3-({6-[4-({[cyclopentyl(methyl)carbamoyl]oxy}methyl)-3-methyl-1,2-oxazol-5-yl]-2-methyl-pyridin-3-yl}oxy)cyclopentyl]propanoic acid] | 24
22 | Cc1nc(-c2onc(C)c2COC(=O)N(C)C2CCCC2)ccc1O[C@H]1CC[C@H](C(C)(C)C(=O)O)C1 (racemic) [Example 52, (±)-trans-2-[3-({6-[4-({[cyclopentyl(methyl)carbamoyl]oxy}methyl)-3-methyl-1,2-oxazol-5-yl]-2-methyl-pyridin-3-yl}oxy)cyclopentyl]-2-methylpropanoic acid] | 8
23 | Cc1nc(-c2nnn(C)c2COC(=O)N(C)CC2CCC2)ccc1O[C@H]1CC[C@H](C2(C(=O)O)CC2)C1 (racemic) [Example 53, (±)-trans-1-[3-({6-[5-({[(cyclobutyl-methyl)(methyl)carbamoyl]oxy}methyl)-1-methyl-1H-1,2,3-triazol-4-yl]-2-methylpyridin-3-yl}oxy)cyclo-pentyl]cyclopropane-1-carboxylic acid] | 14
